According to US11370773B1, “Inhibiting human integrin (alpha-4) (beta-7)” (Morphic Therapeutic, Inc., priority 2019, dated 2022):

target: T1, α4β7 (Homo sapiens, UniProt P13612+P26010); experiment: Cell-based ligand binding assay (LBA), RPMI 8866 cells in competition with soluble MAdCAM-1-Fc; settings: MAdCAM-1-Fc Dylight 650, flow cytometry, read-out: LB Assay (Example 6) IC50
T1 construct: α4β7 expressing cells (RPMI-8866); endogenous in cells; host or cells: RPMI 8866
T1 sequence (P13612 34-1032): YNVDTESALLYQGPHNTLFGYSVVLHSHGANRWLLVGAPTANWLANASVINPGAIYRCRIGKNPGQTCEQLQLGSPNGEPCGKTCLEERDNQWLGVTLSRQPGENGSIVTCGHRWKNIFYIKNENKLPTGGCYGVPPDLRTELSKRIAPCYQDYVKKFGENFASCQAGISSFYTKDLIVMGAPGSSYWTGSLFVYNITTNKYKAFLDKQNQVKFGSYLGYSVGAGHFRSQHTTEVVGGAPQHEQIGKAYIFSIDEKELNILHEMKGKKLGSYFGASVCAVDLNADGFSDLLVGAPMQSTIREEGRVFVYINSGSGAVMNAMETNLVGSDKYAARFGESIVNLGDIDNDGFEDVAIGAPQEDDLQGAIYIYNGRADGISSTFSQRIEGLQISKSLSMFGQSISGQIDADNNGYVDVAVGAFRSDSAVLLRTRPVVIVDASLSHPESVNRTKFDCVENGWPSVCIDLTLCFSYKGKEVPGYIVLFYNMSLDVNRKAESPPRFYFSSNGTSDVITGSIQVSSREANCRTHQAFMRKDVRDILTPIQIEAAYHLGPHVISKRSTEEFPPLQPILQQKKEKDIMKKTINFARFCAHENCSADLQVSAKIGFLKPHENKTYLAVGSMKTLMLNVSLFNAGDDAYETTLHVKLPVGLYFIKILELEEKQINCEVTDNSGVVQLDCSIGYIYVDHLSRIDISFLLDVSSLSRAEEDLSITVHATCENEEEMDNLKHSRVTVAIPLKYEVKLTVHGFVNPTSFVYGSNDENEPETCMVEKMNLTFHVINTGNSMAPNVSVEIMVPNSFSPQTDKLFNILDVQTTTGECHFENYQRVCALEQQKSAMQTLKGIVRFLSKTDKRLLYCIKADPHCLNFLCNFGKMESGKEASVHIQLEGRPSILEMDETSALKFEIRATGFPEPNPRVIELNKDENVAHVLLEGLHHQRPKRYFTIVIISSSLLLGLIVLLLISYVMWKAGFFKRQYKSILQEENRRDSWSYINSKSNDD
T1 sequence (P26010 20-798): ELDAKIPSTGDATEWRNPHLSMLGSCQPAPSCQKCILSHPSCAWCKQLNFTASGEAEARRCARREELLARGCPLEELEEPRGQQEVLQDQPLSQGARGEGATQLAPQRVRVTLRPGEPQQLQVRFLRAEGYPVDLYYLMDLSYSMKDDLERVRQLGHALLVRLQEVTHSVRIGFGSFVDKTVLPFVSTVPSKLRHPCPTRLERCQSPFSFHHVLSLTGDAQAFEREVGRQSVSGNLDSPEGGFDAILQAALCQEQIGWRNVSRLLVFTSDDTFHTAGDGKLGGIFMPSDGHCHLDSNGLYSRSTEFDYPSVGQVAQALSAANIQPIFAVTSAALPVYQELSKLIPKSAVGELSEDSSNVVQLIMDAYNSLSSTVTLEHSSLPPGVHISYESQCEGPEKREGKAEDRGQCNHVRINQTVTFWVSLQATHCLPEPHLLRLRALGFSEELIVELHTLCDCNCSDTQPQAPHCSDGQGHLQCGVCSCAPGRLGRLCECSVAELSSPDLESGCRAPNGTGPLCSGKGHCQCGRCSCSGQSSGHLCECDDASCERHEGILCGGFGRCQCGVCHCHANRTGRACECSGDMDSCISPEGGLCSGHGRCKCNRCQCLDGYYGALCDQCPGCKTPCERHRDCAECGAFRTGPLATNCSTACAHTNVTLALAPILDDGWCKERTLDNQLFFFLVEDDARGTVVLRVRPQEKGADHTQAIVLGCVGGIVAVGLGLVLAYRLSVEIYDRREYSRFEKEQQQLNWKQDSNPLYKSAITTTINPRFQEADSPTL
Description: Three in vitro assays were used to examine the α4β7 mechanistic process used by cells: 1) ligand:receptor affinity, 2) the avidity of those interactions on a cell's surface, and 3) how those interactions fare under an imposing force. In Example 5, a Fluorescence Polarization (FP) assay is used to measure compound activity through binding competition with the fluorescein-labeled peptide. In Example 6, the potency of compounds against α4β7 is measured in the cell-based ligand binding assay (LBA), using RPMI 8866 cells incubated with the compound samples in competition with soluble MAdCAM-1 ligand. In Example 7, activity of compounds is evaluated in a cell adhesion assay that mechanistically tests what occurs in vivo when trafficking cells utilize α4β7 to adhere to MAdCAM-1 expressing HEVs of the gut during the extravasation process. In the cell adhesion assay of Example 7, a MAdCAM1-(Fc) is coated on plastic, and α4β7 expressing cells (RPMI-8866) are allowed to adhere to the coated surface in the presence of the test compounds. Next, the force of washing with buffer is applied to cells thereby testing the strength of that adhesion. Unattached cells are removed and the remaining adherent cells are quantified.
5 ul of 33 nM MAdCAM-1-Fc fluorescently labeled with Dylight 650 in 50 mM HEPES pH 7.3, 150 mM sodium chloride, and 1% bovine serum albumin was added to the cells. The samples were incubated for 45 minutes at room temperature, fixed with 0.8% formaldehyde for 30 minutes at room temperature, and washed with 50 mM Tris pH 7.5, 150 mM NaCl, 1 mM EDTA, and 1% bovine serum albumin. Fluorescence intensity for each cell was measured via flow cytometry. Dead cells were excluded from further analysis based on staining with the 780 fixable viability dye. Median fluorescence intensity for Dylight 650 was determined for each sample and concentration-response curves were analyzed for IC50 values using 4-parameter non-linear regression analysis.

IC50 [nM]	Compound
≤ 10	Cc1cc(C)c(-c2cc(C3CC3)c(F)c([C@H](CC(=O)O)NC(=O)[C@H](CC(C)C)n3cc(CCN4CCC4)c(C(F)(F)F)cc3=O)c2F)c(C)c1 [HM-P2, (3S)-3-(2-(5-(2-(azetidin-1-yl)ethyl)-2-oxo-4-(trifluoromethyl)pyridin-1(2H)-yl)-4-methylpentanamido)-3-(5-cyclopropyl-2,4-difluoro-2′,4′,6′-trimethylbiphenyl-3-yl)propanoic Acid]
≤ 10	Cc1cc(F)cc(C)c1-c1cc(C(F)(F)F)c(F)c([C@H](CC(=O)O)NC(=O)[C@H](CC(C)C)n2cc(CCCN(C)C)c(C(F)(F)F)cc2=O)c1F [HW-P2, (3S)-3-(2-(5-(3-(dimethylamino)propyl)-2-oxo-4-(trifluoromethyl)pyridin-1(2H)-yl)-4-methylpentanamido)-3-(2,4,4′-trifluoro-2′,6′-dimethyl-5-(trifluoromethyl)-[1,1′-biphenyl]-3-yl)propanoic Acid]
10 to 500	Cc1cc(C)c(-c2cc(C(F)(F)F)c(F)c([C@H](CC(=O)O)NC(=O)[C@H](CC(C)C)n3cc(CCCN(C)C)c(C(F)(F)F)cc3=O)c2F)c(C)c1 [HZ-P2, (3S)-3-(2,4-difluoro-2′,4′,6′-trimethyl-5-(trifluoromethyl)biphenyl-3-yl)-3-(2-(5-(3-(dimethylamino)propyl)-2-oxo-4-(trifluoromethyl)pyridin-1(2H)-yl)-4-methylpentanamido)propanoic Acid]
10 to 500	Cc1cc(C)c(-c2cc(C(F)(F)F)c(F)c([C@H](CC(=O)O)NC(=O)[C@H](CC(C)C)n3cc(CCN(C)C)c(C(F)(F)F)cc3=O)c2F)c(C)c1 [IF-P2, (3S)-3-(2,4-difluoro-2′,4′,6′-trimethyl-5-(trifluoromethyl)-[1,1′-biphenyl]-3-yl)-3-(2-(5-(2-(dimethylamino)ethyl)-2-oxo-4-(trifluoromethyl)pyridin-1(2H)-yl)-4-methylpentanamido)propanoic Acid]
10 to 500	Cc1cc(C)c(-c2cc(C(F)(F)F)c(F)c([C@H](CC(=O)O)NC(=O)[C@H](CC(C)C)n3cc(CCN4CCC4)c(C(F)(F)F)cc3=O)c2F)c(C)c1 [IG-P2, (3S)-3-(2-(5-(2-(azetidin-1-yl)ethyl)-2-oxo-4-(trifluoromethyl)pyridin-1(2H)-yl)-4-methylpentanamido)-3-(2,4-difluoro-2′,4′,6′-trimethyl-5-(trifluoromethyl)biphenyl-3-yl)propanoic Acid]
10 to 500	Cc1cc(F)c(C)c(C)c1-c1cc(C(F)(F)F)c(F)c([C@H](CC(=O)O)NC(=O)[C@H](CC(C)C)n2cc(CCN3CCC3)c(C(F)(F)F)cc2=O)c1F [KT-P2, (3S)-3-(2-(5-(2-(azetidin-1-yl)ethyl)-2-oxo-4-(trifluoromethyl)pyridin-1(2H)-yl)-4-methylpentanamido)-3-(2,4,4′-trifluoro-2′,3′,6′-trimethyl-5-(trifluoromethyl)-[1,1′-biphenyl]-3-yl)propanoic Acid]

More lines, now with the values behind:

Compound	IC50 [nM]
Cc1cc(-c2c(C)ccc(F)c2C)cc([C@H](CC(=O)O)NC(=O)C(CC(C)C)n2cc(CCN3CCC3)c(C(F)(F)F)cc2=O)c1F (single isomer, unassigned) [AF-P2]	≤ 10
Cc1ccn([C@@H](NC(C)C)C(=O)N[C@@H](CC(=O)O)c2cncc(-c3c(C)cccc3C)c2)c(=O)c1 [Example C-7, reference compound]	≤ 10
Cc1ccn([C@@H](CC(C)C)C(=O)N[C@H](CC(=O)O)c2cncc(-c3c(C)cccc3C)c2)c(=O)c1 [Example C-28, reference compound]	10 to 500
Cc1ccc(F)c(C)c1-c1cc(C2CC2)c(F)c([C@H](CC(=O)O)NC(=O)[C@H](CC(C)C)n2cc(CCN3CCC3)c(C(F)(F)F)cc2=O)c1F [HH-P2, (3S)-3-(2-(5-(2-(azetidin-1-yl)ethyl)-2-oxo-4-(trifluoromethyl)pyridin-1(2H)-yl)-4-methylpentanamido)-3-(5-cyclopropyl-2,3′,4-trifluoro-2′,6′-dimethyl-[1,1′-biphenyl]-3-yl)propanoic Acid]	≤ 10
Cc1cc(C2CC2)cc(C)c1-c1cc(C(F)(F)F)c(F)c([C@H](CC(=O)O)NC(=O)[C@H](CC(C)C)n2cc(CCCN(C)C)c(C(F)(F)F)cc2=O)c1F [HU-P2, (3S)-3-(4′-cyclopropyl-2,4-difluoro-2′,6′-dimethyl-5-(trifluoromethyl)-[1,1′-biphenyl]-3-yl)-3-(2-(5-(3-(dimethylamino)propyl)-2-oxo-4-(trifluoromethyl)pyridin-1(2H)-yl)-4-methylpentanamido)propanoic Acid]	10 to 500
Cc1cc(-c2c(C)cc(F)cc2C)cc([C@H](CC(=O)O)NC(=O)[C@H](CC(C)C)n2cc(CCN(C)C)cc(C(F)F)c2=O)c1F [I-P2, (3S)-3-(4,4′-difluoro-2′,5,6′-trimethyl-[1,1′-biphenyl]-3-yl)-3-(2-(3-(difluoromethyl)-5-(2-(dimethylamino)ethyl)-2-oxopyridin-1(2H)-yl)-4-methylpentanamido)propanoic Acid]	≤ 10
Cc1cc(C)c(-c2cc(C)c(F)c([C@H](CC(=O)O)NC(=O)[C@H](CC(C)C)n3cc(CCCN(C)C)c(C(F)(F)F)cc3=O)c2F)c(C)c1F [IW-P2, (3S)-3-(2-(5-(3-(dimethylamino)propyl)-2-oxo-4-(trifluoromethyl)pyridin-1(2H)-yl)-4-methylpentanamido)-3-(2,3′,4-trifluoro-2′,4′,5,6′-tetramethyl-[1,1′-biphenyl]-3-yl)propanoic Acid]	10 to 500
